Test system: P12-Ichikawa
Assay: cell viability relative to DMSO control; higher = less cytotoxic
Settings: 48 h
Outline: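 In 1536-well plates, 5 μl of leukemia cells were seeded per well: 500 cells/well for NOMO1 or SEM and 1000 cells/well for P12-Ichikawa. Each line had first been adapted for at least four passages in each medium. Library compounds in DMSO were pin-dosed at 11 threefold concentrations between 47 μM and 0.79 nM, and CellTiter-Glo One luminescence was read after 48 h at 37°C. Viability is a per-plate percentage relative to DMSO wells, with cell-free wells as background.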

[1] = HPLM + 10% dialyzed FBS, 0.000781 µM
[2] = HPLM + 10% dialyzed FBS, 0.00234 µM
[3] = HPLM + 10% dialyzed FBS, 0.00702 µM
[4] = HPLM + 10% dialyzed FBS, 0.0211 µM
[5] = HPLM + 10% dialyzed FBS, 0.0632 µM
[6] = HPLM + 10% dialyzed FBS, 0.19 µM
[7] = HPLM + 10% dialyzed FBS, 0.569 µM
[8] = HPLM + 10% dialyzed FBS, 1.71 µM
[9] = HPLM + 10% dialyzed FBS, 5.12 µM
[10] = HPLM + 10% dialyzed FBS, 15.4 µM
[11] = HPLM + 10% dialyzed FBS, 46.1 µM
[12] = RPMI 5 mM glucose + 10% FBS, 0.000781 µM
[13] = RPMI 5 mM glucose + 10% FBS, 0.00234 µM
[14] = RPMI 5 mM glucose + 10% FBS, 0.00702 µM
[15] = RPMI 5 mM glucose + 10% FBS, 0.0211 µM
[16] = RPMI 5 mM glucose + 10% FBS, 0.0632 µM
[17] = RPMI 5 mM glucose + 10% FBS, 0.19 µM
[18] = RPMI 5 mM glucose + 10% FBS, 0.569 µM
[19] = RPMI 5 mM glucose + 10% FBS, 1.71 µM
[20] = RPMI 5 mM glucose + 10% FBS, 5.12 µM
[21] = RPMI 5 mM glucose + 10% FBS, 15.4 µM
[22] = RPMI 5 mM glucose + 10% FBS, 46.1 µM
[23] = RPMI 5 mM glucose + 10% dialyzed FBS, 0.000781 µM
[24] = RPMI 5 mM glucose + 10% dialyzed FBS, 0.00234 µM
[25] = RPMI 5 mM glucose + 10% dialyzed FBS, 0.00702 µM
[26] = RPMI 5 mM glucose + 10% dialyzed FBS, 0.0211 µM
[27] = RPMI 5 mM glucose + 10% dialyzed FBS, 0.0632 µM
[28] = RPMI 5 mM glucose + 10% dialyzed FBS, 0.19 µM
[29] = RPMI 5 mM glucose + 10% dialyzed FBS, 0.569 µM
[30] = RPMI 5 mM glucose + 10% dialyzed FBS, 1.71 µM
[31] = RPMI 5 mM glucose + 10% dialyzed FBS, 5.12 µM
[32] = RPMI 5 mM glucose + 10% dialyzed FBS, 15.4 µM
[33] = RPMI 5 mM glucose + 10% dialyzed FBS, 46.1 µM

SMILES | cell viability [1] | cell viability [2] | cell viability [3] | cell viability [4] | cell viability [5] | cell viability [6] | cell viability [7] | cell viability [8] | cell viability [9] | cell viability [10] | cell viability [11] | cell viability [12] | cell viability [13] | cell viability [14] | cell viability [15] | cell viability [16] | cell viability [17] | cell viability [18] | cell viability [19] | cell viability [20] | cell viability [21] | cell viability [22] | cell viability [23] | cell viability [24] | cell viability [25] | cell viability [26] | cell viability [27] | cell viability [28] | cell viability [29] | cell viability [30] | cell viability [31] | cell viability [32] | cell viability [33]
OC[C@H]1OC(OC2=CC3=C(C(=C2)O)C(=O)\C(=C/O3)C4=CC=C(O)C=C4)[C@H](O)[C@@H](O)[C@@H]1O (stereo partly specified) | 87.8% | 90.5% | 91.9% | 81.5% | 86.2% | 86.9% | 86.1% | 84.1% | 76% | 80.5% | 81.3% | 76.4% | 89.3% | 83.8% | 88.7% | 95.2% | 83.2% | 82.9% | 78% | 79% | 82.4% | 85.6% | 82.5% | 85.1% | 90.6% | 88.1% | 86% | 82.9% | 69.3% | 86.3% | 71.7% | 79.7% | 80%
CC(C)(O)C(=O)Nc1ccc([N+](=O)[O-])c(C(F)(F)F)c1 | 103% | 109% | 124% | 119% | 118% | 123% | 119% | 119% | 85.6% | 24% | 11.6% | 95.7% | 108% | 115% | 115% | 122% | 113% | 119% | 125% | 87% | 29.5% | 13.8% | 94.1% | 127% | 116% | 121% | 125% | 130% | 139% | 136% | 127% | 74.8% | 18.1%
O=C(NCC1CCOCC1)c1cnc(Nc2ccc(Cl)cc2Cl)nc1C(F)(F)F | 102% | 111% | 115% | 118% | 109% | 117% | 118% | 115% | 115% | 121% | 124% | 100% | 127% | 123% | 121% | 130% | 131% | 112% | 131% | 123% | 132% | 118% | 98% | 115% | 114% | 127% | 123% | 132% | 120% | 122% | 122% | 127% | 123%
C[N]1C=C(C=N1)C2=CC=C3N=CC\4=C(N(C(=O)\C=C4)C5=CC6=C(CCN6C(=O)C=C)C=C5)C3=C2 | 106% | 121% | 109% | 114% | 112% | 115% | 105% | 95.4% | 79.9% | 20.8% | 20.4% | 123% | 112% | 118% | 114% | 110% | 113% | 111% | 98% | 74.6% | 7.13% | 5.07% | 116% | 128% | 117% | 120% | 115% | 126% | 119% | 98.4% | 82.2% | 6.85% | 4.97%
Oc1ccc([C@@H]2Oc3ccc(O)cc3[C@@H]3CCC[C@@H]32)cc1 | 86.9% | 90.2% | 94.7% | 93.5% | 92.7% | 95.1% | 94.3% | 90.5% | 87.4% | 40.6% | 12.2% | 88.5% | 82.6% | 92.7% | 88.7% | 90% | 87% | 85.5% | 85.4% | 82.3% | 34.1% | 12% | 76.8% | 80.7% | 87.2% | 85.6% | 82.8% | 76.6% | 82.4% | 76.5% | 72.8% | 44.6% | 14.4%
CCOC(=O)[C@H]1O[C@@H]1C(=O)N[C@@H](CC(C)C)C(=O)NCCC(C)C | 123% | 114% | 121% | 127% | 123% | 123% | 117% | 116% | 117% | 108% | 106% | 128% | 121% | 119% | 118% | 124% | 115% | 127% | 116% | 115% | 106% | 92.9% | 116% | 119% | 115% | 121% | 124% | 119% | 122% | 119% | 118% | 109% | 102%
N#CC[C@H](C1CCCC1)n1cc(-c2ncnc3[nH]ccc23)cn1 | 95.7% | 95.2% | 98.5% | 98.1% | 98.6% | 90.3% | 89.4% | 91.8% | 72.9% | 52.8% | 40% | 93.7% | 95.7% | 93.4% | 92.6% | 103% | 89.2% | 83.1% | 95.4% | 75.4% | 54.5% | 23.3% | 90.8% | 89% | 86.3% | 87.4% | 89.6% | 88.3% | 82.2% | 87.7% | 70.4% | 41.1% | 23.3%
